{"source": "patent US20240279600A1", "about": "“COMPOSITIONS AND METHODS FOR PROMOTING IN VITRO MATURATION OF CELLS” (MEMORIAL SLOAN-KETTERING CANCER CENTER, priority 2021, published 2024)", "type_in_all_cases": "cell-based, human", "key": {"[1]": {"tested_on": "hPSC-derived cortical neurons", "assay": "High-content maturity assay / chemical screen in hPSC-derived cortical neurons", "conditions": "for dose-response validation, mean of 4 maturity parameters normalized to DMSO (mean maturation score): 30 nM-10,000 nM, nuclear size and roundness, neurite length, KCl-induced FOS/EGR1+ cells; for number of cells (cell viability / neuron survival): with respect to DMSO, treatment days 7-14, day 21", "from_the_text": "The phenotypic complexity of neurons makes single-readout assays unsuitable to fully capture maturation stages. Therefore, a multi-phenotype approach (via high-content screening, HCS) (Boutros M., Heigwer F. & Laufer C. Cell vol. 163 1314-1325 (2015)) was used to design an assay that simultaneously monitors distinct features of neuronal maturation (FIG. 1A). Dendritic outgrowth is a widely used parameter of neuron maturity (Wu, G. Y. et al., J. Neurosci. 19, 4472-4483 (1999)) and can be monitored through automated tracing of microtubule-associated protein 2 (MAP2) immunostaining (FIGS. 1B and 1C). Changes in nuclear size and morphology are also characteristic of neuron development and maturation (Ito K. & Takizawa T., Frontiers in Genetics vol. 9 (2018)) and can be tracked via DAPI counterstaining (FIGS. 1B and 1C). As an indirect measurement of neuronal function and excitability, the nuclear expression of immediate early gene (IEG) products FOS and EGR1 were quantified following 2 hours of potassium chloride (KCl) stimulation (FIGS. 1B and 1D). IEGs are defined by their rapid induction in the absence of de-novo protein synthesis by stimuli that include sustained membrane depolarization in neurons (Sheng M. & Greenberg M. E., Neuron vol. 4 477-485 (1990)). In contrast to more traditional measures of neuronal activity such as calcium imaging and electrophysiology, IEG immunoreactivity is readily scalable as a readout for thousands of treatment conditions. However, IEGs can be triggered by stimuli other than neuronal activity including growth factor signaling (Greenberg M. E. & Ziff E. B., Nature 311, 433-438 (1984)) and cellular stress responses (Murai J. et al., Cell Rep. 30, 4137-4151.e6 (2020)). Therefore, to avoid direct activation of IEGs, transient compound treatment (day 7-14) was used and all measurements were performed after rinsing of compounds followed by culture in compound-free medium for an additional 7 days (day 14-21) prior to analysis (FIG. 1A). Furthermore, IEGs under both basal and KCl-stimulated conditions were recorded to specifically determine the depolarization-induced signal by subtracting baseline from KCl-induced responses. Measuring maturation readouts only after compound withdrawal enabled the identification of compounds that trigger a long-lasting “memory” of a maturation stimulus even after compound removal.\nThe present maturity assay was then applied to screen a library of 2688 bioactive compounds in hPSC-derived cortical neurons (FIG. 6A). The library was applied at 5 μM and standard scores (z-scores) of duplicate screen runs were averaged for analysis. Viability was determined by quantifying intact nuclei, and 325 toxic compounds with a z-score below −2 were excluded from further analysis (FIG. 6B). For HCS hit selection, principal component analysis (PCA) was applied to 6 maturity z-scores to identify patterns of distribution among compounds, avoiding single threshold hit discrimination (Singh S. et al., Journal of Biomolecular Screening vol. 19 640-650 (2014)) (FIG. 1E, left panel). The 6 parameters were: nuclear size and roundness, total neurite length and branching (number of segments per cell), and fractions of KCl-induced FOS+ and EGR1+ cells. Three phenotypic clusters of compounds were identified by PCA: maturation enhancers (hits); maturation suppressors, consisting mostly of inhibitors of the PI3K/AKT/mTOR axis; and inducers of non-neuronal contaminant proliferation, which were highly enriched in TGF-β signaling inhibitors as well as inhibitors of rho-associated protein kinase (ROCK) and other signaling pathways (FIG. 1E, right panel).\nA bioactive compound library containing 2688 compounds was used for screening at a concentration of 5 μM (Selleck Bioactive Library, Selleck Chemicals). 192 DMSO wells contained within the library were used as negative controls. […]"}, "[2]": {"tested_on": "hPSC-derived cortical neurons from treated NPC", "assay": "Western blot for maturation markers after transient inhibition of chromatin regulators in NPC", "conditions": "NPC treated d12 to d20, neurons analysed d35, versus DMSO"}, "[3]": {"tested_on": "hPSC-derived cortical neurons from treated NPC", "assay": "Ca2+ imaging (GCaMP6m) after transient inhibition of chromatin regulators in NPC", "conditions": "NPC treated d12 to d20, imaging d40, versus DMSO"}}, "note": "Entries after “also recorded” stand apart in the source; their conditions may differ.", "data": [{"compound": "COC(=O)C1=C(C)NC(C)=C([N+](=O)[O-])C1c1ccccc1C(F)(F)F", "note": "(stereo not drawn) [Bay K 8644, methyl 2,6-dimethyl-5-nitro-4-[2-(trifluoromethyl)phenyl]-1,4-dihydropyridine-3-carboxylate]", "values": [{"measurement": "dose-response validation, mean of 4 maturity parameters normalized to DMSO (mean maturation score)", "setting": "[1]", "value": "confirmed hits"}, {"measurement": "number of cells (cell viability / neuron survival)", "setting": "[1]", "value": "did not significantly affect neuron survival"}]}, {"compound": "CC(C)N(CCCNC(=O)Nc1ccc(C(C)(C)C)cc1)C[C@H]1O[C@@H](n2ccc3c(N)ncnc32)[C@H](O)[C@@H]1O", "note": "[EPZ004777, 1-[3-[[(2R,3S,4R,5R)-5-(4-aminopyrrolo[2,3-d]pyrimidin-7-yl)-3,4-dihydroxyoxolan-2-yl]methyl-propan-2-ylamino]propyl]-3-(4-tert-butylphenyl)urea]", "values": [{"measurement": "expression of the maturation markers Nefh and Stx1a", "setting": "[2]", "value": "robust increased expression"}, {"measurement": "synchronicity of the neuronal network (synchronous firing rate)", "setting": "[3]", "value": "modest functional enhancement with an increased synchronous firing rate"}]}, {"compound": "CC(C)N(C[C@H]1O[C@@H](n2cnc3c(N)ncnc32)[C@H](O)[C@@H]1O)[C@H]1C[C@@H](CCc2nc3cc(C(C)(C)C)ccc3[nH]2)C1", "note": "[EPZ-5676, (2R,3R,4S,5R)-2-(6-aminopurin-9-yl)-5-[[[3-[2-(6-tert-butyl-1H-benzimidazol-2-yl)ethyl]cyclobutyl]-propan-2-ylamino]methyl]oxolane-3,4-dioland]", "values": [{"measurement": "dose-response validation, mean of 4 maturity parameters normalized to DMSO (mean maturation score)", "setting": "[1]", "value": "confirmed hits"}, {"measurement": "number of cells (cell viability / neuron survival)", "setting": "[1]", "value": "did not significantly affect neuron survival"}]}, {"compound": "CCCc1cc(C)[nH]c(=O)c1CNC(=O)c1cc(-c2ccnc(N3CCN(C)CC3)c2)cc2c1cnn2C(C)C", "note": "[GSK343, N-[(6-methyl-2-oxo-4-propyl-1H-pyridin-3-yl)methyl]-6-[2-(4-methylpiperazin-1-yl)pyridin-4-yl]-1-propan-2-ylindazole-4-carboxamide]", "values": [{"measurement": "expression of the maturation markers Nefh and Stx1a", "setting": "[2]", "value": "robust increased expression"}, {"measurement": "amplitude of individual Ca2+ spikes", "setting": "[3]", "value": "marked and highly significant increase"}, {"measurement": "frequency of individual Ca2+ spikes", "setting": "[3]", "value": "marked and highly significant increase"}, {"measurement": "synchronicity of the neuronal network (synchronous firing rate)", "setting": "[3]", "value": "marked and highly significant increase"}]}, {"compound": "O=C(O)c1ccc(CN2CCC(CN[C@@H]3C[C@H]3c3ccccc3)CC2)cc1", "note": "[GSK2879552, 4-[[4-[[[(1R,2S)-2-phenylcyclopropyl]amino]methyl]piperidin-1-yl]methyl]benzoic acid]", "values": [{"measurement": "dose-response validation, mean of 4 maturity parameters normalized to DMSO (mean maturation score)", "setting": "[1]", "value": "stronger combined effect than OG-L002; also recorded: confirmed hits"}, {"measurement": "number of cells (cell viability / neuron survival)", "setting": "[1]", "value": "did not significantly affect neuron survival"}]}, {"compound": "N[C@H]1C[C@@H]1c1ccc(-c2cccc(O)c2)cc1", "note": "[OG-L002]", "values": [{"measurement": "dose-response validation, mean of 4 maturity parameters normalized to DMSO (mean maturation score)", "setting": "[1]", "value": "confirmed hits"}]}, {"compound": "COc1cc2c(NC3CCN(C(C)C)CC3)nc(C3CCCCC3)nc2cc1OCCCN1CCCC1", "note": "[UNC0638, 2-cyclohexyl-6-methoxy-N-(1-propan-2-ylpiperidin-4-yl)-7-(3-pyrrolidin-1-ylpropoxy)quinazolin-4-amine]", "values": [{"measurement": "expression of the maturation markers Nefh and Stx1a", "setting": "[2]", "value": "robust increased expression"}, {"measurement": "synchronicity of the neuronal network (synchronous firing rate)", "setting": "[3]", "value": "significant changes"}]}]}
